{"source": "patent US8486918B2", "about": "“Phenyl oxadiazole derivatives as sphingosine 1-phosphate (S1P) receptor” (Allergan, Inc., priority 2010, dated 2013)", "note": "pEC50: −log10 of the molar value.", "data": [{"molecular_target": "T1, human S1P1 receptor (Homo sapiens, UniProt P21453)", "T1 construct": "expressed in transfected cells; membranes used", "T1 sequence (P21453 whole entry)": "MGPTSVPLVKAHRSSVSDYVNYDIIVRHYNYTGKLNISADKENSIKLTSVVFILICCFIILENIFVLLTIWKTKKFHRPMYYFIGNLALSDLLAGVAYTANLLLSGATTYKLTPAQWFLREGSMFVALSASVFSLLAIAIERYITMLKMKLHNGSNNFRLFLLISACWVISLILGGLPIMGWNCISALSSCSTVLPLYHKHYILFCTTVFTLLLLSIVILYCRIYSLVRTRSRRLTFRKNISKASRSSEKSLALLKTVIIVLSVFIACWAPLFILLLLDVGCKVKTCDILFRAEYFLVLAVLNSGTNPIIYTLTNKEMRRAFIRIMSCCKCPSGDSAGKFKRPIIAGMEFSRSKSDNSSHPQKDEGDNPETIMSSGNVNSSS", "assay": "GTP γ35S binding assay for S1P1 activity", "type": "biochemical", "settings": "membranes of cells stably expressing the S1P1 receptor, test concentrations 0.08 to 5,000 nM", "description": "Compounds were synthesized and tested for S1P1 activity using the GTP γ^35S binding assay. These compounds may be assessed for their ability to activate or block activation of the human S1P1 receptor in cells stably expressing the S1P1 receptor.\nGTP γ^35S binding was measured in the medium containing (mM) HEPES 25, pH 7.4, MgCl2 10, NaCl 100, dithitothreitol 0.5, digitonin 0.003%, 0.2 nM GTP γ^35S, and 5 μg membrane protein in a volume of 150 μl. Test compounds were included in the concentration range from 0.08 to 5,000 nM unless indicated otherwise. Membranes were incubated with 100 μM 5′-adenylylimmidodiphosphate for 30 min, and subsequently with 10 μM GDP for 10 min on ice. Drug solutions and membrane were mixed, and then reactions were initiated by adding GTP γ^35S and continued for 30 min at 25° C. Reaction mixtures were filtered over Whatman GF/B filters under vacuum, and washed three times with 3 mL of ice-cold buffer (HEPES 25, pH7.4, MgCl2 10 and NaCl 100). Filters were dried and mixed with scintillant, and counted for ^35S activity using a β-counter. Agonist-induced GTP γ^35S binding was obtained by subtracting that in the absence of agonist. Binding data were analyzed using a non-linear regression method. In case of antagonist assay, the reaction mixture contained 10 nM S1P in the presence of test antagonist at concentrations ranging from 0.08 to 5000 nM.", "values": [{"compound": "CCCc1cccc(OC(c2cccc(Cl)c2)c2nc(-c3ccc(CNCCC(=O)O)cc3)no2)c1", "note": "(centres unmarked) [3-[(4-{5-[(3-chlorophenyl)(3-propylphenoxy)methyl]-1,2,4-oxadiazol-3-yl}benzyl)amino]propanoic acid]", "pEC50": 5.68}, {"compound": "O=C(O)CCNCc1ccc(-c2noc(C(Oc3cccc(Cl)c3)c3ccccc3Cl)n2)cc1", "note": "(centres unmarked) [Compound 2, 3-[(4-{5-[(3-chlorophenoxy)(2-chlorophenyl)methyl]-1,2,4-oxadiazol-3-yl}benzyl)amino]propanoic acid]", "pEC50": 5.67}, {"compound": "Cc1ccc(SC(c2nc(-c3ccc(CNCCC(=O)O)cc3)no2)c2ccccc2Cl)cc1C", "note": "(centres unmarked) [Compound 5, 3-{[4-(5-{(2-chlorophenyl)[(3,4-dimethylphenyl)thio]methyl}-1,2,4-oxadiazol-3-yI)benzyl]amino}propanoic acid]", "pEC50": 6.84}, {"compound": "CCCc1ccc(OC(c2cccc(Cl)c2)c2nc(-c3ccc(CNCCC(=O)O)cc3)no2)cc1", "note": "(centres unmarked) [Compound 6, 3-[(4-{5-[(3-chlorophenyl)(4-propylphenoxy)methyl]-1,2,4-oxadiazol-3-yI}benzyl)amino]propanoic acid]", "pEC50": 5.80}, {"compound": "CCc1ccc(OC(c2cccc(Cl)c2)c2nc(-c3ccc(CNCCC(=O)O)cc3)no2)cc1", "note": "(centres unmarked) [Compound 7, 3-[(4-{5-[(3-chlorophenyl)(4-ethylphenoxy)methyl]-1,2,4-oxadiazol-3-yI}benzyl)amino]propanoic acid]", "pEC50": 5.97}, {"compound": "Cc1ccc(OC(c2cccc(Cl)c2)c2nc(-c3ccc(CNCCC(=O)O)cc3)no2)cc1", "note": "(centres unmarked) [Compound 8, 3-[(4-{5-[(3-chlorophenyl)(4-methylphenoxy)methyl]-1,2,4-oxadiazol-3-yl}benzyl)amino]propanoic acid]", "pEC50": 6.38}, {"compound": "COc1ccc(OC(c2nc(-c3ccc(CNCCC(=O)O)cc3)no2)c2ccccc2Cl)cc1C", "note": "(centres unmarked) [Compound 10, 3-[(4-{5-[(2-chlorophenyl)(4-methoxy-3-methylphenoxy)methyl]-1,2,4-oxadiazol-3-yl}benzyl)amino]propanoic acid]", "pEC50": 6.68}, {"compound": "Cc1ccc(SC(c2cccc(Cl)c2)c2nc(-c3cc(C)c(OCC(O)CO)c(C)c3)no2)cc1C", "note": "(centres unmarked) [Compound 11, 3-[4-(5-{(3-chlorophenyl)[(3,4-dimethylphenyl)thio]methyl}-1,2,4-oxadiazol-3-yl)-2,6-dimethylphenoxy]propane-1,2-diol]", "pEC50": 7.52}]}]}
